How the values were obtained:
Experiment in all cases: relative viability (nuclei count vs DMSO), 5 days (fraction); higher = more cells survive
201T = system: 201T
Procedure, shortened: (§1)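 Lung cancer cell lines were pin-tool dosed in 1536-well plates on the day after seeding, with either a lone drug or a fixed anchor-drug dose plus five library-drug doses (not always all listed) in √10 steps. Nuclei were counted on 4× images after 5 days. Relative viability is the ratio of treated-well to vehicle-well nuclei counts, with each value a median of duplicate plates.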

COR-L23 = system: COR-L23
Procedure, shortened: as §1

ChaGo-K-1 = system: ChaGo-K-1
Procedure, shortened: as §1

HARA = system: HARA
Procedure, shortened: as §1

HCC-15 = system: HCC-15
Procedure, shortened: as §1

HCC-366 = system: HCC-366
Procedure, shortened: as §1

HCC-78 = system: HCC-78
Procedure, shortened: as §1

LCLC-103H = system: LCLC-103H
Procedure, shortened: as §1

LCLC-97TM1 = system: LCLC-97TM1
Procedure, shortened: as §1

LOU-NH91 = system: LOU-NH91
Procedure, shortened: as §1

NCI-H1355 = system: NCI-H1355
Procedure, shortened: as §1

NCI-H1734 = system: NCI-H1734
Procedure, shortened: as §1

NCI-H1792 = system: NCI-H1792
Procedure, shortened: as §1

NCI-H2009 = system: NCI-H2009
Procedure, shortened: as §1

NCI-H2126 = system: NCI-H2126
Procedure, shortened: as §1

NCI-H441 = system: NCI-H441
Procedure, shortened: as §1

NCI-H460 = system: NCI-H460
Procedure, shortened: as §1

NCI-H596 = system: NCI-H596
Procedure, shortened: as §1

NCI-H647 = system: NCI-H647
Procedure, shortened: as §1

NCI-H650 = system: NCI-H650
Procedure, shortened: as §1

PC-14 = system: PC-14
Procedure, shortened: as §1

SW 900 = system: SW 900
Procedure, shortened: as §1

SMILES: COCC1(CO)C(=O)C2CCN1CC2 (stereo unspecified) [PRIMA-1MET] + N=C(N)NC(=N)NCCc1ccccc1 [Phenformin] (partner 250 µM)
- relative viability (201T; first compound 0.2 µM): 0.444
- relative viability (201T; first compound 0.6325 µM): 0.452
- relative viability (201T; first compound 2 µM): 0.397
- relative viability (201T; first compound 6.325 µM): 0.452
- relative viability (201T; first compound 20 µM): 0.464
- relative viability (COR-L23; first compound 0.2 µM): 0.554
- relative viability (COR-L23; first compound 0.6325 µM): 0.413
- relative viability (COR-L23; first compound 2 µM): 0.477
- relative viability (COR-L23; first compound 6.325 µM): 0.343
- relative viability (COR-L23; first compound 20 µM): 0.0169
- relative viability (ChaGo-K-1; first compound 0.2 µM): 0.481
- relative viability (ChaGo-K-1; first compound 0.6325 µM): 0.439
- relative viability (ChaGo-K-1; first compound 2 µM): 0.514
- relative viability (ChaGo-K-1; first compound 6.325 µM): 0.503
- relative viability (ChaGo-K-1; first compound 20 µM): 0.459
- relative viability (HARA; first compound 0.2 µM): 0.526
- relative viability (HARA; first compound 0.6325 µM): 0.421
- relative viability (HARA; first compound 6.325 µM): 0.538
- relative viability (HARA; first compound 20 µM): 0.409
- relative viability (HCC-15; first compound 0.2 µM): 0.427
- relative viability (HCC-15; first compound 0.6325 µM): 0.471
- relative viability (HCC-15; first compound 2 µM): 0.439
- relative viability (HCC-15; first compound 6.325 µM): 0.451
- relative viability (HCC-15; first compound 20 µM): 0.172
- relative viability (HCC-366; first compound 0.2 µM): 0.651
- relative viability (HCC-366; first compound 0.6325 µM): 0.611
- relative viability (HCC-366; first compound 2 µM): 0.484
- relative viability (HCC-366; first compound 6.325 µM): 0.633
- relative viability (HCC-366; first compound 20 µM): 0.462
- relative viability (HCC-78; first compound 0.2 µM): 0.7
- relative viability (HCC-78; first compound 0.6325 µM): 0.648
- relative viability (HCC-78; first compound 6.325 µM): 0.658
- relative viability (HCC-78; first compound 20 µM): 0.599
- relative viability (LCLC-103H; first compound 0.2 µM): 0.354
- relative viability (LCLC-103H; first compound 0.6325 µM): 0.283
- relative viability (LCLC-103H; first compound 2 µM): 0.315
- relative viability (LCLC-103H; first compound 6.325 µM): 0.355
- relative viability (LCLC-103H; first compound 20 µM): 0.362
- relative viability (LCLC-97TM1; first compound 0.2 µM): 0.436
- relative viability (LCLC-97TM1; first compound 0.6325 µM): 0.437
- relative viability (LCLC-97TM1; first compound 2 µM): 0.484
- relative viability (LCLC-97TM1; first compound 6.325 µM): 0.448
- relative viability (LCLC-97TM1; first compound 20 µM): 0.347
- relative viability (LOU-NH91; first compound 0.2 µM): 0.724
- relative viability (LOU-NH91; first compound 0.6325 µM): 0.667
- relative viability (LOU-NH91; first compound 2 µM): 0.554
- relative viability (LOU-NH91; first compound 6.325 µM): 0.712
- relative viability (LOU-NH91; first compound 20 µM): 0.392
- relative viability (NCI-H1355; first compound 0.2 µM): 0.443
- relative viability (NCI-H1355; first compound 0.6325 µM): 0.409
- relative viability (NCI-H1355; first compound 2 µM): 0.384
- relative viability (NCI-H1355; first compound 6.325 µM): 0.46
- relative viability (NCI-H1355; first compound 20 µM): 0.421
- relative viability (NCI-H1734; first compound 0.2 µM): 0.385
- relative viability (NCI-H1734; first compound 0.6325 µM): 0.328
- relative viability (NCI-H1734; first compound 2 µM): 0.324
- relative viability (NCI-H1734; first compound 6.325 µM): 0.361
- relative viability (NCI-H1734; first compound 20 µM): 0.058
- relative viability (NCI-H1792; first compound 0.2 µM): 0.352
- relative viability (NCI-H1792; first compound 0.6325 µM): 0.272
- relative viability (NCI-H1792; first compound 6.325 µM): 0.238
- relative viability (NCI-H1792; first compound 20 µM): 0.319
- relative viability (NCI-H2009; first compound 0.2 µM): 0.497
- relative viability (NCI-H2009; first compound 0.6325 µM): 0.456
- relative viability (NCI-H2009; first compound 2 µM): 0.519
- relative viability (NCI-H2009; first compound 6.325 µM): 0.53
- relative viability (NCI-H2009; first compound 20 µM): 0.217
- relative viability (NCI-H2126; first compound 0.2 µM): 0.568
- relative viability (NCI-H2126; first compound 0.6325 µM): 0.532
- relative viability (NCI-H2126; first compound 2 µM): 0.513
- relative viability (NCI-H2126; first compound 6.325 µM): 0.577
- relative viability (NCI-H2126; first compound 20 µM): 0.531
- relative viability (NCI-H441; first compound 0.2 µM): 0.872
- relative viability (NCI-H441; first compound 0.6325 µM): 0.762
- relative viability (NCI-H441; first compound 2 µM): 0.838
- relative viability (NCI-H441; first compound 6.325 µM): 0.657
- relative viability (NCI-H441; first compound 20 µM): 0.183
- relative viability (NCI-H460; first compound 0.2 µM): 0.658
- relative viability (NCI-H460; first compound 0.6325 µM): 0.495
- relative viability (NCI-H460; first compound 2 µM): 0.481
- relative viability (NCI-H460; first compound 6.325 µM): 0.042
- relative viability (NCI-H460; first compound 20 µM): 0.0117
- relative viability (NCI-H596; first compound 0.2 µM): 0.752
- relative viability (NCI-H596; first compound 0.6325 µM): 0.794
- relative viability (NCI-H596; first compound 2 µM): 0.622
- relative viability (NCI-H596; first compound 6.325 µM): 0.891
- relative viability (NCI-H596; first compound 20 µM): 0.693
- relative viability (NCI-H647; first compound 0.2 µM): 0.405
- relative viability (NCI-H647; first compound 0.6325 µM): 0.546
- relative viability (NCI-H647; first compound 2 µM): 0.453
- relative viability (NCI-H647; first compound 6.325 µM): 0.514
- relative viability (NCI-H647; first compound 20 µM): 0.0596
- relative viability (NCI-H650; first compound 0.2 µM): 0.595
- relative viability (NCI-H650; first compound 2 µM): 0.433
- relative viability (NCI-H650; first compound 6.325 µM): 0.482
- relative viability (NCI-H650; first compound 20 µM): 0.438
- relative viability (PC-14; first compound 0.2 µM): 0.621
- relative viability (PC-14; first compound 0.6325 µM): 0.503
- relative viability (PC-14; first compound 2 µM): 0.735
- relative viability (PC-14; first compound 6.325 µM): 0.379
- relative viability (PC-14; first compound 20 µM): 0.0559
- relative viability (SW 900; first compound 0.2 µM): 0.665
- relative viability (SW 900; first compound 0.6325 µM): 0.61
- relative viability (SW 900; first compound 2 µM): 0.492
- relative viability (SW 900; first compound 6.325 µM): 0.0861
- relative viability (SW 900; first compound 20 µM): 0.105

From the supplement of paper PMC10307832
